The values that follow come from publication PMC4632503, “Targeting of Helicobacter pylori thymidylate synthase ThyX by non-mitotoxic hydroxy-naphthoquinones” (Open Biology, 2015).

The subject of data set [1] is H. pylori strain SS1. In words: MIC, broth microdilution test, strain SS1. Type of data set: cell-based. The note with it: Helicobacter pylori, 24 h, read-out: minimal inhibitory concentration (MIC) strain SS1. As to the method:
(§1) The in vitro anti-bacterial activity of 2-OH-1,4-NQ compounds was assessed against the 26695 and SS1 strains of H. pylori. DMSO was used as control in all experiments.
(§2) Disc diffusion tests were performed in triplicate, including a DMSO-only control on each plate, as specified in the electronic supplementary material. Minimal inhibitory concentrations (MICs) were determined using a broth microdilution test in 24-well microtitre plates. For test inocula, an overnight preculture of H. pylori strains 26695 and SS1 was diluted to an OD600 of approximately 0.1 and 0.5 ml of this suspension was transferred to each well. Ten microlitres of twofold serial dilutions of each compound in DMSO, ranging in concentration from 0.625 to 20 µg ml^−1, were added and the covered plates were incubated for 24 h at 37°C with orbital shaking at 140 r.p.m. under microaerophilic conditions. The MIC was determined as the lowest compound concentration resulting in full growth inhibition after 24 h of incubation. All the tests were done in triplicate, including cell-free and DMSO-only controls.
(In general: In broth dilution the organism is exposed to a series of concentrations in liquid medium.)

For data set [2], the system named is H. pylori strain 26695. In words: MIC, broth microdilution test, strain 26695. In kind it is cell-based. As to conditions: Helicobacter pylori. As to the method:
as §1, §2

Data set [3] has as its target T1, HpThyX (Helicobacter pylori, UniProt O26061).
T1 construct: His6; made in house; host or cells: Escherichia coli BL21 (plasmid pGL2, pBAD promoter)
In words: tritium release (deprotonation) assay of [5-3H]dUMP. As to conditions: for remaining activity at 100 µM: 20 min, semi-quantitative deprotonation assay, lower = stronger inhibition, read-out: inhibition against ThyX (% remaining activity relative to control); for dTMP-forming activity: quantitative tritium release assay, 100 μM compound, 10 μM ThyX enzyme. In kind it is biochemical. As to the method: (§3) HpThyX activity was assessed by measuring either deprotonation of [5-^3H]dUMP or NAPDH oxidation activities.
In the tritium release (deprotonation) assays, typical reactions contained 10 mM MgCl2, 10% (v/v) glycerol, 500 µM FAD, 2 mM NADPH, 1 mM CH2H4Folate and 10 mM β-mercaptoethanol in 50 mM HEPES (pH 8). Different concentrations of dUMP were also included in the reaction mixtures. The specific activity of tritiated [5-^3H]dUMP (diammonium salt) stock was 15–30 Ci mmol^−1 (Moravek Biochemicals, CA, USA). 2-OH-1,4-NQ derivatives were prepared at 100 µM in 1% DMSO. Reactions were initiated by adding the enzyme (10 µM) and were stopped after 20 min incubation at 37°C.

The subject of data set [4] is H. pylori 26695. In words: bactericidal activity, viable counts (CFU) in liquid culture. The note with it: exposure up to 24 h, replating on solid media. In kind it is cell-based, Helicobacter pylori. As to the method: To determine the bactericidal activity of C8-C1 against H. pylori, liquid BHI medium was inoculated with an overnight culture of H. pylori 26695 at an initial OD600 of 0.1. C8-C1 or chloramphenicol, used as bacteriostatic control, were added after 4 h of culture time at final concentrations of 5 and 30 µg ml^−1. To determine the viable counts of surviving bacteria (colony forming units, CFU), aliquots of culture were then plated in triplicate on blood agar plates after 3 and 24 h exposure.

Data set [5] has as its system AGS cells. In words: cytotoxicity, LDH release. In kind it is cell-based, human. The note with it: 0.78 to 50 μg ml^−1, 24 h. As to the method: Cytotoxicity of the 2-OH-1,4-NQ derivatives was assessed by measuring lactate dehydrogenase (LDH) release following manufacturer's instructions (Cytotoxicity Detection Kit; Roche Applied Sciences). Briefly, AGS cells (human gastric adenocarcinoma cell line; ATCC Catalog no. CRL-1739TM) were cultured in Ham's F-12 K medium containing 1% of FBS. A total of 3 × 10^4 cells were added per well in a sterile 96-well tissue culture plate. Cells were then treated with different doses of 2-OH-1,4-NQ compounds ranging from 0.78 to 50 μg ml^−1. After a 24 h incubation at 37°C (5% CO2, 90% humidity), the microplates were centrifuged at 250g for 10 min, and the supernatants were carefully removed and transferred into optically clear 96-well microplates (Greiner Bio-One). The dye solution containing iodotetrazolium chloride and sodium lactate was then added to each well to quantify the amount of LDH released into the extracellular medium. LDH was quantified by measuring the A490 using a PowerWave Microplate Spectrophotometer (BioTek).
(LDH leaks from cells whose membrane has failed.)

In data set [6] the target is T1, HpThyX. In words: NADPH oxidation assay. In kind it is biochemical. The note with it: estimated from slope of IC50 versus dUMP concentration. As to the method:
as §3
NADPH oxidation assays were performed at 37°C in 96-well plates (Greiner Bio-One). One hundred microlitres of reaction mixture contained HEPES 50 mM (pH 8.6), NaCl 150 mM, FAD 50 µM, β-mercaptoethanol 1.43 mM, NADPH 500 µM and 10 µM of purified HpThyX. dUMP and 2-OH-1,4-NQ concentrations were varied across 12.5–200 µM and 0.3–100 µM, respectively. Microtitre plates were prepared and transferred to the microplate reader Chameleon II (Hidex). The reactions were started by automatically injecting NADPH into individual wells and ThyX activity was determined by following a decrease in absorbance at 340 nm. A molar extinction coefficient of 6220 M^−1 cm^−1 at 340 nm (ε340) was used to quantify NADPH oxidation. Samples with added DMSO and enzyme-free reactions were used as positive and negative controls, respectively.

Data set [7] deals with AGS cells. In words: mitotoxicity, resazurin reduction. In kind it is cell-based, human. The note with it: for mitotoxicity: 0.78 to 50 μg ml^−1, 4 h treatment; for effect on mitochondrial metabolism: low concentrations, resazurin reduction. As to the method:
Mitochondrial toxicity (mitotoxicity) was assessed by measuring resazurin (7-hydroxy-3H-phenoxazin-3-one 10-oxide) reduction by following absorption changes at 570 nm (Mitochondrial Viability Assay; Abcam). Resazurin is an indicator dye that reports on oxidation–reduction reactions taking place in the mitochondria of living cells. AGS cells (≅2.5 × 10^5cells well^−1) cultured in a DMEM galactose/glutamine-supplemented medium were seeded in sterile white-walled 96-well clear-bottom microplates and treated for 4 h with different doses of 2-OH-1,4-NQ compounds ranging from 0.78 to 50 μg ml^−1. Addition of the stain solution was followed by a further 4 h incubation at 37°C (5% CO2, 90% humidity) and A570 was measured. Rotenone, an inhibitor of the mitochondrial respiratory chain complex I, was used as a positive control.

The nature of data set [8]: tolerance of orogastric treatment in infected mice. As to conditions: orogastric three times a day, 0.375 mg mouse day^−1, one week; for effect on body or stomach weight: data not shown. In kind it is in vivo, NMRI mice. As to the method: (§4) NMRI-specific pathogen-free mice (Charles River Laboratories) were orogastrically inoculated with 10^8 CFU of the H. pylori mouse-adapted strain SS1, prepared in 100 μl of peptone broth. Four groups of six to eight mice were infected by H. pylori strain SS1. Earlier experiments have established that after one week, colonization of mice is fully established. A negative control group of five mice was inoculated with peptone broth alone and was not colonized by H. pylori. One week after infection, three groups of mice were treated orogastrically three times a day with 500 µl of either compound 010-C, 010-E or 010-I dissolved in 2% β-cyclodextrin at 0.25 mg ml^−1 (0.375 mg mouse d^−1) during one week. As a control, the fourth group of mice was treated orogastrically three times a day by the same amount of 2% β-cyclodextrin (17.6 mM), the vehicle of the compounds. […] This average size is in agreement with the average size of β-cyclodextrin particles that self-aggregate in water at a concentration of 12 mM [39]. After treatment, viable H. pylori cells, colonizing the mouse stomach, were enumerated by culture of serial dilutions of homogenized tissue on blood agar plates containing bacitracin (200 μg ml^−1) and nalidixic acid (10 μg ml^−1) as in [40].

For data set [9], the system named is H. pylori strains 26695 and SS1. In words: disc diffusion test. Type of data set: cell-based, Helicobacter pylori. As to conditions: 10 μg per disc, 72 h. As to the method:
as §2
Figure S2. Disk diffusion antibiograms of H. pylori strains 26695 (A) and SS1 (B) with the 2-OH-1,4-NQ compounds. To perform these disc diffusion tests, an overnight culture of the H. pylori strain was diluted to an OD600 ≈ 0.01. Blood agar plates were flooded with 2 ml of the diluted suspension. […] The diameters of each growth inhibition zone were measured on the Petri dish. […]
subtracting the disc diameter (6 mm) from the measured zone. […]
A general note: Agar diffusion results depend on both activity and mobility in agar.

Data set [10] has as its system H. pylori strain SS1. In words: mouse infection and treatment, gastric colonization. The note with it: NMRI mice, orogastric three times a day, 0.375 mg mouse day^−1 (17 mg kg^−1), one week. In kind it is in vivo, Helicobacter pylori. As to the method: as §4
Where [11] appears, read: 26695, 24 h, full growth inhibition, read-out: minimal inhibitory concentration (MIC) strain 26695.
The mark [12] stands for this setting: 26695, 24 h, value in brackets, read-out: minimal inhibitory concentration (MIC) strain 26695.

SMILES strings stand for the structures. “Also recorded” adds a separate entry of the source. Like-named read-outs stand apart in the source and are kept apart here.

T1 sequence (O26061 whole entry): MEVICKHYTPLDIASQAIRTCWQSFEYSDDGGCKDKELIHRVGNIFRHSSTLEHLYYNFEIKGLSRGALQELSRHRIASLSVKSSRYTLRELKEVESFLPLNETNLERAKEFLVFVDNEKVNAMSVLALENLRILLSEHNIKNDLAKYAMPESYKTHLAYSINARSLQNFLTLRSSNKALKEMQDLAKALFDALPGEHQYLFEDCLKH

One may read the remaining activity as what remains of the control signal, in per cent. As usually defined, the Ki is the dissociation constant of the complex between target and ligand, obtained from inhibition or displacement. In the case of `COc1ccc(CC2=C(O)C(=O)c3ccccc3C2=O)cc1` [007-A, 2-hydroxy-3-(4-methoxybenzyl)-1,4-naphthoquinone], the MIC in data set [1] (full growth inhibition) amounted to 10 µg/mL; in data set [1] (value in brackets), 34 µM; in [2] (setting [11]), 10 µg/mL; in data set [2] (setting [12]) it was 34 µM. For the same molecule, in data set [3], the remaining activity at 100 µM came to 38.5%. For the same molecule, the dTMP-forming activity result in data set [3] is on record as “suppressed the dTMP-forming activity”. Moreover, in [4] (listed as C8-C1), the “kind of anti-microbial activity / viable cells after exposure” value is on record as “no viable cells were recovered; also recorded: bactericidal”. In addition, the cytotoxicity result in [5] is given as “non-cytotoxic”. Moreover, the Ki in data set [6] is 367 nM. Besides, in [7], the mitotoxicity entry is recorded as “non-mitotoxic”. In addition, the “effect on mitochondrial metabolism” value in data set [7] was “activated the mitochondrial metabolism”.

As to `O=C1C(O)=C(Cc2ccco2)C(=O)c2ccccc21` [010-C], the MIC in data set [1] (full growth inhibition) amounted to 10 µg/mL. Also, the MIC in data set [1] (value in brackets) was determined as 39.3 µM. In [2] (setting [11]), the MIC was determined as 10 µg/mL. The MIC in [2] (setting [12]) amounted to 39.3 µM. For the same molecule, in data set [3], the remaining activity at 100 µM was 76.4% and the dTMP-forming activity result is listed as “suppressed the dTMP-forming activity”. The cytotoxicity result in data set [5] is “non-cytotoxic”. Moreover, the inhibition constant Ki in data set [6] is 28 nM. Also, in data set [8], the tolerance in mice result is reported as “tolerated in mice” and the “effect on body or stomach weight” value is given as “None of the aforementioned treatments affected either the body or stomach weight”. For the same molecule, in [7], the mitotoxicity entry is given as “non-mitotoxic” and the “effect on mitochondrial metabolism” value was “activated the mitochondrial metabolism”.

With `O=C1C(Cl)=C(Nc2ccc(F)cc2)C(=O)c2ccccc21` [010-G], the MIC in data set [1] (full growth inhibition) is 0.625 µg/mL; in data set [1] (value in brackets) it was 2.07 µM; in data set [2] (setting [11]) it was 0.625 µg/mL; in data set [2] (setting [12]), 2.07 µM; in data set [2] (liquid cultures, strains 26695 and SS1 not distinguished, read-out: MIC), around 0.625 µg/mL. Besides, the remaining activity at 100 µM in [3] worked out at 21.1%. Further, the cytotoxicity result in [5] is “cytotoxic”. Further, the “activity in disc diffusion tests” value in data set [9] was “inactive”.

In the case of `CCCCC1=C(O)C(=O)c2ccccc2C1=O` [010-I], in [1] (full growth inhibition), the MIC amounted to 10 µg/mL. The MIC in [1] (value in brackets) is 43.4 µM. Further, in [2] (setting [11]), the MIC amounted to 10 µg/mL. Moreover, the MIC in data set [2] (setting [12]) amounted to 43.4 µM. Besides, in [3], the remaining activity at 100 µM is 64.3% and the dTMP-forming activity entry is “suppressed the dTMP-forming activity”. In [10], the “decrease in the colonization loads (geometric means) versus vehicle” value worked out at 1.22 log and the “decrease in the colonization loads versus vehicle” value was 17 fold. Further, the cytotoxicity entry in data set [5] was “non-cytotoxic”. Besides, the Ki in data set [6] was 258 nM. Moreover, in data set [8], the tolerance in mice entry is recorded as “tolerated in mice” and the “effect on body or stomach weight” value is given as “None of the aforementioned treatments affected either the body or stomach weight”. Moreover, in data set [7], the mitotoxicity result was “non-mitotoxic” and the “effect on mitochondrial metabolism” value was “activated the mitochondrial metabolism”.

`O=C(N[C@H](CO)[C@H](O)c1ccc([N+](=O)[O-])cc1)C(Cl)Cl` [chloramphenicol, reference compound]: the “kind of anti-microbial activity / viable cells after exposure” value in data set [4] is listed as “bacteriostatic”.
